Broadly, the solubility is the dissolved amount per volume that the medium holds.

Molecules are shown by their SMILES. ≈ marks a conversion by molar mass, not a printed value.

The nature of data set [1]: Dissolution test of amorphous Drug 1 in PBS with varying HPMCAS-MF concentration. In kind it is physicochemical. The following applies: amorphous Drug 1 10 mg/mL added, PBS 37°C. Here is the method: First, HPMCAS-MF was dissolved in PBS with stirring at 37° C. and 1.5 mL of this solution was placed in a microcentrifuge tube.
Data set [2] is classed as physicochemical. The protocol:
To determine the composition of the polymer/drug assemblies, solutions formed from the dispersions of Example 30 and Example 31 in PBS were analyzed using HPLC and NMR, as described in Example 4. […] To measure the free drug concentration using NMR, 2 wt % NaTC/POPC was added to the solution. By measuring the amount of drug that partitioned into NaTC/POPC micelles, the concentration of free drug in PBS was calculated using the equation: […]
where DM is the concentration of drug in micelles (measured by NMR), Kp is the partition coefficient for drug partitioning between water and micelles (30,000), Df is the free drug concentration in PBS, and VM is the volume ratio occupied by micelles in the PBS solution (cm^3 micelles/cm^3 solution=0.021). […] The amount of polymer contained in the polymer/drug assemblies was calculated by subtracting the free polymer and the polymer in the precipitate from the total polymer added to solution (contained in the solid dispersions). […]
The dispersions of Examples 30 and 31 were added to PBS with varying amounts of NaTC/POPC, and the concentration of drug in NaTC/POPC micelles was measured by NMR spectroscopy. […]
The free drug concentration with no micelles present was calculated as follows. […]
Aqueous solutions formed from the solid dispersion of Example 40 were analyzed using DLS and NMR, as described in Examples 3 and 4. […]

Data set [3] can be described thus: Solubility of the drug alone (crystalline or amorphous). The following applies: for solubility: thermodynamic from solid.
For data set [4] the following is noted: dispersion of YM022 in HPMC and polyoxyethylene hydrogenated castor oil administered to aqueous solution; cited from earlier work.
For data set [5] the following is noted: rats, colloidal solution; cited from earlier work.
Setting [6] is: HPMCAS-MF 0 mg/mL (amorphous drug alone).

Turning to `O=C(N[C@@H](Cc1ccccc1)[C@@H](O)C(=O)N1C[C@@H](O)[C@@H](O)C1)c1cc2cc(Cl)ccc2[nH]1` [Drug 1, 5-chloro-1H-indole-2-carboxylic acid [(1S)-benzyl-3-((3R, 4S)-dihydroxypyrroldin-1-yl-)-(2R)-hydroxy-3-oxypropyl] amide], the “HPLC Total Dissolved Drug 1 at 90 min.” value in data set [1] (setting [6]) was 224 µg/mL; in data set [1] (HPMCAS-MF 0.5 mg/mL) it was 447 µg/mL; in data set [1] (HPMCAS-MF 1 mg/mL) it was 487 µg/mL; in data set [1] (HPMCAS-MF 5 mg/mL), 4928 µg/mL; in data set [1] (HPMCAS-MF 10 mg/mL), 7453 µg/mL; in data set [1] (HPMCAS-MF 20 mg/mL) it was 8099 µg/mL. Also, the “HPLC Total Dissolved Drug 1 at 1200 min.” value came to 196 µg/mL in data set [1] (setting [6]); 289 µg/mL in data set [1] (HPMCAS-MF 0.5 mg/mL); 203 µg/mL in data set [1] (HPMCAS-MF 1 mg/mL); 1550 µg/mL in data set [1] (HPMCAS-MF 5 mg/mL); 5431 µg/mL in data set [1] (HPMCAS-MF 10 mg/mL); 7451 µg/mL in data set [1] (HPMCAS-MF 20 mg/mL).
Consider `CCOC(=O)N1c2ccc(C(F)(F)F)cc2C(N(Cc2cc(C(F)(F)F)cc(C(F)(F)F)c2)C(=O)OC)CC1CC` (stereo not drawn) [Drug 2, 4-[(3,5-bis-trifluoromethyl-benzyl)-methoxycarbonyl-amino]-2-ethyl-6-trifluoromethyl-3,4-dihydro-2H-quinoline-1-carboxylic acid ethyl ester], for which the “Kp, partition coefficient for drug partitioning between water and micelles” value in data set [2] is given as 30,000. This compound returned a Drug 2 Concentration, NaTC/POPC Conc. 0 wt % in data set [2] (crystalline Drug 2, value obtained in a separate experiment) of 0.01 µg/mL. Besides, the solubility was 6 µg/mL (≈ 9.99 µM) in data set [3] (PBS with 2% NaTC/POPC, fassgf or other biorelevant, Solubility of crystalline Drug 2 in 2% NaTC/POPC in PBS, 2% NaTC/POPC in PBS); 0.01 µg/mL (≈ 0.0167 µM) in data set [3] (PBS, Solubility of the crystalline Drug 2); roughly 0.01 µg/mL (≈ 0.0167 µM) in data set [3] (aqueous solution without micelles, Solubility of Drug 2 in aqueous solution without micelles, crystalline Drug 2, separate experiments). In data set [3] (crystalline Drug 2, separate experiments), the “Solubility of Drug 2 in aqueous solution without micelles” value was “approximately 0.010 μg/mL”.
In turn, `Cc1ncccc1CNC(=O)c1ccc2c(c1)CC[C@@H]1C[C@@](O)(CCC(F)(F)F)CC[C@@]21Cc1ccccc1` [Drug 3, 2-phenanthrenecarboxamide, 4b,5,6,7,8,8a,9,10-octahydro-7-hydroxy-N-[(2-methyl-3-pyridinyl)methyl]-4b-(phenylmethyl)-7-(3,3,3-trifluoropropyl)-, (4bS,7S,8aR)-] displayed a solubility in data set [3] (Solubility of Drug 3, crystalline Drug 3) of 0.004 µg/mL (≈ 0.00745 µM).
For the compound `Cc1cccc(NC(=O)N[C@@H]2N=C(c3ccccc3)c3ccccc3N(CC(=O)c3ccccc3C)C2=O)c1` [YM022], the “Mean diameter of colloidal particles” value in data set [4] is 160 nm. In data set [5], the “Absorption on oral administration” value was “good absorption”.

The values above are taken from patent US20030170309A1, “Pharmaceutical compositions containing polymer and drug assemblies” (priority 2001, published 2003).
